{"source": "patent US6872729B2", "about": "“Pyrimidinylbenzimidazole and triazinylbenzimidazole derivatives and agricultural/horticultural fungicides” (Kumiai Chemical Industry Co., Ltd., priority 1998, dated 2005)", "data": [{"tested_on": "Erysiphe graminis", "test": "Test for preventive effect on wheat powdery mildew", "type": "in vivo", "settings": "wheat (Norin-61-go) seedlings, 500 ppm active ingredient, preventive treatment; diseased area of first leaves 10 days after inoculation with Erysiphe graminis", "experimental": "Test for Preventive Effect on Wheat Powdery Mildew 9 Wheat seeds (variety: Norin-61-go) were sown in each 9 cm×9 cm polyvinyl chloride pot, grown in a greenhouse for 8 days, then treated with 10 ml per pot of aqueous solutions of wettable powders prepared in accordance with Formulation Example 2, at a concentration of 500 ppm in terms of the active ingredients and dried in the air. Then, the seedlings were inoculated with Erysiphe graminis spores by sprinkle over the plant and placed in a greenhouse of from 20 to 25° C. 10 days after the inoculation, the total diseases area of the first leaves in each pot was observed and evaluated on the basis of the standards shown in Table 67. [table]", "values": [{"compound": "CCOc1cc(OCC)nc(-n2c(C)nc3cc(Cl)ccc32)n1", "note": "[Compound I-499]", "Biological effectiveness": "A (No diseased area)"}, {"compound": "CCOc1cc(OCC)nc(-n2c(C)nc3cc(C)ccc32)n1", "note": "[Compound I-501]", "Biological effectiveness": "A (No diseased area)"}, {"compound": "CCOc1cc(OCC)nc(-n2c(C)nc3cc(C(F)(F)F)ccc32)n1", "note": "[Compound I-502]", "Biological effectiveness": "A (No diseased area)"}, {"compound": "CCOc1cc(OCC)nc(-n2c(C)nc3cc(OC)ccc32)n1", "note": "[Compound I-503]", "Biological effectiveness": "A (No diseased area)"}, {"compound": "CCOc1cc(OCC)nc(-n2c(C)nc3ccc(F)cc32)n1", "note": "[Compound I-507]", "Biological effectiveness": "A (No diseased area)"}, {"compound": "CCOc1cc(OCC)nc(-n2c(C)nc3ccc(Cl)cc32)n1", "note": "[Compound I-508]", "Biological effectiveness": "B (Diseased area of less than 25%)"}, {"compound": "CCOc1cc(OCC)nc(-n2c(C)nc3ccc(C(F)(F)F)cc32)n1", "note": "[Compound I-510]", "Biological effectiveness": "A (No diseased area)"}, {"compound": "CCOc1cc(OCC)nc(-n2c(C)nc3ccc(OC)cc32)n1", "note": "[Compound I-511]", "Biological effectiveness": "A (No diseased area)"}, {"compound": "CCOc1nc(OCC)nc(-n2c(C)nc3cc(Cl)ccc32)n1", "note": "[Compound I-514]", "Biological effectiveness": "A (No diseased area)"}, {"compound": "CCOc1nc(OCC)nc(-n2c(C)nc3cc(Br)ccc32)n1", "note": "[Compound I-515]", "Biological effectiveness": "A (No diseased area)"}, {"compound": "CCOc1nc(OCC)nc(-n2c(C)nc3cc(C)ccc32)n1", "note": "[Compound I-516]", "Biological effectiveness": "A (No diseased area)"}, {"compound": "CCOc1cc(OCC)nc(-n2c(Cl)nc3cc(C)ccc32)n1", "note": "[Compound I-530]", "Biological effectiveness": "A (No diseased area)"}, {"compound": "CCOc1cc(OCC)nc(-n2c(Cl)nc3cc(OC)ccc32)n1", "note": "[Compound I-531]", "Biological effectiveness": "A (No diseased area)"}, {"compound": "CCOc1nc(OCC)nc(-n2c(Cl)nc3cc(Cl)ccc32)n1", "note": "[Compound I-534]", "Biological effectiveness": "A (No diseased area)"}, {"compound": "CCOc1nc(OCC)nc(-n2c(C(F)(F)F)nc3cc(C)ccc32)n1", "note": "[Compound I-543]", "Biological effectiveness": "A (No diseased area)"}, {"compound": "CCOc1nc(OCC)nc(-n2c(C(F)(F)F)nc3cc(OC)ccc32)n1", "note": "[Compound I-544]", "Biological effectiveness": "A (No diseased area)"}, {"compound": "CCOc1nc(OCC)nc(-n2c(C(F)(F)F)nc3cc(Cl)ccc32)n1", "note": "[Compound I-545]", "Biological effectiveness": "A (No diseased area)"}, {"compound": "CCOc1nc(OCC)nc(-n2c(C(F)(F)F)nc3cc(Br)ccc32)n1", "note": "[Compound I-546]", "Biological effectiveness": "A (No diseased area)"}, {"compound": "CCOc1nc(OCC)nc(-n2c(C(Cl)(Cl)Cl)nc3cc(Cl)ccc32)n1", "note": "[Compound I-550]", "Biological effectiveness": "A (No diseased area)"}, {"compound": "CCOc1cc(OCC)nc(-n2c(S(C)(=O)=O)nc3cc(Cl)ccc32)n1", "note": "[Compound I-573]", "Biological effectiveness": "B (Diseased area of less than 25%)"}, {"compound": "CCCOc1nc(OCCC)nc(-n2c(C)nc3cc(Cl)ccc32)n1", "note": "[Compound I-580]", "Biological effectiveness": "A (No diseased area)"}, {"compound": "Cc1nc2cc(Cl)ccc2n1-c1nc(OC(C)C)nc(OC(C)C)n1", "note": "[Compound I-592]", "Biological effectiveness": "A (No diseased area)"}, {"compound": "CC(C)Oc1nc(OC(C)C)nc(-n2c(C(F)(F)F)nc3cc(Cl)ccc32)n1", "note": "[Compound I-595]", "Biological effectiveness": "B (Diseased area of less than 25%)"}, {"compound": "C=CCOc1nc(OCC=C)nc(-n2c(C)nc3cc(Cl)ccc32)n1", "note": "[Compound I-601]", "Biological effectiveness": "A (No diseased area)"}, {"compound": "COc1ccnc(-n2cnc3cc(Cl)ccc32)n1", "note": "[Compound I-669]", "Biological effectiveness": "B (Diseased area of less than 25%)"}, {"compound": "COc1ccnc(-n2cnc3cc(C)ccc32)n1", "note": "[Compound I-670]", "Biological effectiveness": "B (Diseased area of less than 25%)"}, {"compound": "COc1ccnc(-n2c(C)nc3cc(Cl)ccc32)n1", "note": "[Compound I-671]", "Biological effectiveness": "B (Diseased area of less than 25%)"}, {"compound": "COc1ccnc(-n2c(C)nc3cc(C)ccc32)n1", "note": "[Compound I-672]", "Biological effectiveness": "B (Diseased area of less than 25%)"}, {"compound": "COc1ccnc(-n2c(C)nc3ccc(Cl)cc32)n1", "note": "[Compound I-675]", "Biological effectiveness": "B (Diseased area of less than 25%)"}, {"compound": "COc1ccnc(-n2c(C(F)(F)F)nc3cc(Cl)ccc32)n1", "note": "[Compound I-682]", "Biological effectiveness": "A (No diseased area)"}, {"compound": "COc1ccnc(-n2c(C(F)(F)F)nc3cc(C)ccc32)n1", "note": "[Compound I-683]", "Biological effectiveness": "A (No diseased area)"}, {"compound": "CCOc1ccnc(-n2cnc3ccccc32)n1", "note": "[Compound I-690]", "Biological effectiveness": "A (No diseased area)"}, {"compound": "CCOc1ccnc(-n2cnc3cc(Cl)ccc32)n1", "note": "[Compound I-692]", "Biological effectiveness": "B (Diseased area of less than 25%)"}, {"compound": "CCOc1ccnc(-n2cnc3cc(C)ccc32)n1", "note": "[Compound I-693]", "Biological effectiveness": "A (No diseased area)"}, {"compound": "CCOc1ccnc(-n2c(C)nc3cc(Cl)ccc32)n1", "note": "[Compound I-694]", "Biological effectiveness": "B (Diseased area of less than 25%)"}, {"compound": "CCOc1ccnc(-n2c(C)nc3cc(C)ccc32)n1", "note": "[Compound I-695]", "Biological effectiveness": "A (No diseased area)"}, {"compound": "CCOc1ccnc(-n2c(C(F)(F)F)nc3cc(Cl)ccc32)n1", "note": "[Compound I-704]", "Biological effectiveness": "B (Diseased area of less than 25%)"}, {"compound": "CCOc1ccnc(-n2c(C(F)(F)F)nc3cc(C)ccc32)n1", "note": "[Compound I-705]", "Biological effectiveness": "A (No diseased area)"}, {"compound": "COc1cc(C)nc(-n2cnc3ccccc32)n1", "note": "[Compound I-726]", "Biological effectiveness": "B (Diseased area of less than 25%)"}, {"compound": "COc1cc(C)nc(-n2c(C)nc3cc(Cl)ccc32)n1", "note": "[Compound I-731]", "Biological effectiveness": "B (Diseased area of less than 25%)"}, {"compound": "COc1nc(C)nc(-n2c(C)nc3cc(C)ccc32)n1", "note": "[Compound I-752]", "Biological effectiveness": "A (No diseased area)"}, {"compound": "COc1nc(C)nc(-n2c(Cl)nc3cc(C)ccc32)n1", "note": "[Compound I-758]", "Biological effectiveness": "A (No diseased area)"}, {"compound": "COc1nc(C)nc(-n2c(C(F)(F)F)nc3cc(C)ccc32)n1", "note": "[Compound I-762]", "Biological effectiveness": "A (No diseased area)"}, {"compound": "COc1nc(C)nc(-n2c(N)nc3cc(C)ccc32)n1", "note": "[Compound I-767]", "Biological effectiveness": "B (Diseased area of less than 25%)"}, {"compound": "CCOc1cc(C)nc(-n2cnc3ccccc32)n1", "note": "[Compound I-768]", "Biological effectiveness": "A (No diseased area)"}, {"compound": "CCOc1cc(C)nc(-n2c(C)nc3ccccc32)n1", "note": "[Compound I-769]", "Biological effectiveness": "A (No diseased area)"}, {"compound": "CCOc1cc(C)nc(-n2c(Cl)nc3ccccc32)n1", "note": "[Compound I-771]", "Biological effectiveness": "A (No diseased area)"}, {"compound": "CCOc1cc(C)nc(-n2cnc3cc(C)ccc32)n1", "note": "[Compound I-772]", "Biological effectiveness": "A (No diseased area)"}, {"compound": "CCOc1cc(C)nc(-n2c(C)nc3cc(C)ccc32)n1", "note": "[Compound I-775]", "Biological effectiveness": "A (No diseased area)"}, {"compound": "CCCOc1cc(C)nc(-n2cnc3ccccc32)n1", "note": "[Compound I-804]", "Biological effectiveness": "A (No diseased area)"}, {"compound": "CCCOc1cc(C)nc(-n2cnc3cc(OC)ccc32)n1", "note": "[Compound I-805]", "Biological effectiveness": "B (Diseased area of less than 25%)"}, {"compound": "CCCOc1cc(C)nc(-n2c(C)nc3ccccc32)n1", "note": "[Compound I-806]", "Biological effectiveness": "B (Diseased area of less than 25%)"}, {"compound": "CCCOc1cc(C)nc(-n2cnc3cc(C)ccc32)n1", "note": "[Compound I-809]", "Biological effectiveness": "B (Diseased area of less than 25%)"}, {"compound": "CCCOc1cc(C)nc(-n2c(Cl)nc3cc(OC)ccc32)n1", "note": "[Compound I-818]", "Biological effectiveness": "B (Diseased area of less than 25%)"}]}]}
